Calls of active or inactive are those of the source. No rule for the calls is given here.

The series has as its system CCRIS mutagenicity, Ames/micronucleus/aberration tests. Briefly: CCRIS mutagenicity studies.
The mark [1] stands for this setting: Test System: AMES SALMONELLA TYPHIMURIUM, Strain/Indicator: TA100, Metabolic Activation: NONE, Method: STANDARD PLATE.
Where [2] appears, read: Test System: AMES SALMONELLA TYPHIMURIUM, Strain/Indicator: TA102, Metabolic Activation: RAT, LIVER, S-9, AROCLOR 1254, Method: STANDARD PLATE.
Setting [3] is: Test System: AMES SALMONELLA TYPHIMURIUM, Strain/Indicator: TA98, Metabolic Activation: NONE, Method: STANDARD PLATE.

Consider `NNC(=O)c1ccncc1`, for which the mutagenic call by setting is: (Test System: AMES SALMONELLA TYPHIMURIUM, Strain/Indicator: G46, Metabolic Activation: HAMSTER, LIVER, HOMOGENATE (HEAT-INACTIVATED), Method: PREINCUBATION) “inactive; negative”; (Test System: AMES SALMONELLA TYPHIMURIUM, Strain/Indicator: G46, Metabolic Activation: HAMSTER, LIVER, HOMOGENATE, Method: PREINCUBATION) “active; positive”; (Test System: AMES SALMONELLA TYPHIMURIUM, Strain/Indicator: G46, Metabolic Activation: MOUSE, LIVER, HOMOGENATE, Method: PREINCUBATION) “active; positive”; (Test System: AMES SALMONELLA TYPHIMURIUM, Strain/Indicator: G46, Metabolic Activation: NONE, Method: STANDARD PLATE) “inactive; negative”; (Test System: AMES SALMONELLA TYPHIMURIUM, Strain/Indicator: G46, Metabolic Activation: RAT, LIVER, HOMOGENATE, Method: PREINCUBATION) “active; positive”; (Test System: AMES SALMONELLA TYPHIMURIUM, Strain/Indicator: TA92, Metabolic Activation: NONE, Method: STANDARD PLATE) “active; positive”. The mutagenic call was “inactive; negative” (Test System: AMES SALMONELLA TYPHIMURIUM, Strain/Indicator: TA100, Metabolic Activation: MOUSE, LIVER, S-9, Method: STANDARD PLATE); “active; positive” under setting [1]; “inactive; negative” under setting [2]; “inactive; negative” (Test System: AMES SALMONELLA TYPHIMURIUM, Strain/Indicator: TA1535, Metabolic Activation: HAMSTER, LIVER, HOMOGENATE (HEAT-INACTIVATED), Method: PREINCUBATION); “active; positive” (Test System: AMES SALMONELLA TYPHIMURIUM, Strain/Indicator: TA1535, Metabolic Activation: HAMSTER, LIVER, HOMOGENATE, Method: PREINCUBATION); “active; positive” (Test System: AMES SALMONELLA TYPHIMURIUM, Strain/Indicator: TA1535, Metabolic Activation: MOUSE, LIVER, HOMOGENATE, Method: PREINCUBATION). Moreover, the mutagenic call runs as follows: (Test System: AMES SALMONELLA TYPHIMURIUM, Strain/Indicator: TA1535, Metabolic Activation: MOUSE, LIVER, POSTMITOCHONDRIAL SUPERNATANT, Method: PREINCUBATION) “inactive; negative”; (Test System: AMES SALMONELLA TYPHIMURIUM, Strain/Indicator: TA1535, Metabolic Activation: MOUSE, LIVER, S-9, Method: PREINCUBATION) “inactive; negative”; (Test System: AMES SALMONELLA TYPHIMURIUM, Strain/Indicator: TA1535, Metabolic Activation: NONE, Method: STANDARD PLATE) “active; positive”; (Test System: AMES SALMONELLA TYPHIMURIUM, Strain/Indicator: TA1535, Metabolic Activation: RAT, LIVER, HOMOGENATE, Method: PREINCUBATION) “active; positive”.
In the case of `CCN=[N+]([O-])CC`, the mutagenic call is, setting by setting: (Test System: AMES SALMONELLA TYPHIMURIUM, Strain/Indicator: TA1535, Metabolic Activation: HAMSTER, LIVER, S-9, AROCLOR 1254, Method: PREINCUBATION) “inactive; negative”; (Test System: AMES SALMONELLA TYPHIMURIUM, Strain/Indicator: TA1535, Metabolic Activation: NONE, Method: PREINCUBATION) “inactive; negative”; (Test System: AMES SALMONELLA TYPHIMURIUM, Strain/Indicator: TA1535, Metabolic Activation: RAT, LIVER, S-9, AROCLOR 1254, Method: PREINCUBATION) “inactive; negative”.
`COCC=O`: the mutagenic call was “active; positive” (Test System: AMES SALMONELLA TYPHIMURIUM, Strain/Indicator: TA97A, Metabolic Activation: NONE, Method: STANDARD PLATE); “active; positive” (Test System: AMES SALMONELLA TYPHIMURIUM, Strain/Indicator: TA97A, Metabolic Activation: RAT, LIVER, S-9, AROCLOR 1254, Method: STANDARD PLATE); “inactive; negative” under setting [3]; “inactive; negative” (Test System: AMES SALMONELLA TYPHIMURIUM, Strain/Indicator: TA98, Metabolic Activation: RAT, LIVER, S-9, AROCLOR 1254, Method: STANDARD PLATE); “inactive; negative” under setting [1]; “inactive; negative” (Test System: AMES SALMONELLA TYPHIMURIUM, Strain/Indicator: TA100, Metabolic Activation: RAT, LIVER, S-9, AROCLOR 1254, Method: STANDARD PLATE). Besides, the mutagenic call (Test System: AMES SALMONELLA TYPHIMURIUM, Strain/Indicator: TA102, Metabolic Activation: NONE, Method: STANDARD PLATE) is “inactive; negative”; the mutagenic call under setting [2] was “inactive; negative”; the mutagenic call (Test System: CHINESE HAMSTER OVARY, Strain/Indicator: CHO AS52 (GPT)/6-THIOGUANINE, Metabolic Activation: NONE) is “active; positive”; the mutagenic call (Test System: CHINESE HAMSTER OVARY, Strain/Indicator: CHO-AS52/6-THIOGUANINE, Metabolic Activation: NONE) is “active; positive”; the mutagenic call (Test System: CHINESE HAMSTER OVARY, Strain/Indicator: CHO-K1-BH4 (HGPRT)/6-THIOGUANINE, Metabolic Activation: NONE) was “inactive; negative”; the mutagenic call (Test System: CHINESE HAMSTER OVARY, Strain/Indicator: CHO-K1-BH4 (HGPRT)/6-THIOGUANINE, Metabolic Activation: RAT, LIVER, S-9, AROCLOR 1254) is “inactive; negative”. Further, the mutagenic call (Test System: CHINESE HAMSTER V-79, Strain/Indicator: V-79 (HPRT)/6-THIOGUANINE, Metabolic Activation: NONE) is “active; positive”.
For the molecule `Cc1cc2cc3ccccc3c3ccc4cccc1c4c23`, the mutagenic call reads like this: (Test System: AMES SALMONELLA TYPHIMURIUM, Strain/Indicator: TA100, Metabolic Activation: RAT, INTACT HEPATOCYTES, AROCLOR 1254, Method: PREINCUBATION) “active; positive”; (Test System: AMES SALMONELLA TYPHIMURIUM, Strain/Indicator: TA100, Metabolic Activation: RAT, NADPH-FORTIFIED HOMOGENIZED HEPATOCYTES, AROCLOR 1254, Method: PREINCUBATION) “active; positive”.
For the molecule `C1=CCCCC1`, the mutagenic call is “inactive; negative” under setting [3]; “inactive; negative” (Test System: AMES SALMONELLA TYPHIMURIUM, Strain/Indicator: TA98, Metabolic Activation: RAT LIVER S-9, SOVOL, Method: STANDARD PLATE); “inactive; negative” under setting [1]; “inactive; negative” (Test System: AMES SALMONELLA TYPHIMURIUM, Strain/Indicator: TA100, Metabolic Activation: RAT LIVER S-9, SOVOL, Method: STANDARD PLATE); “inactive; negative” (Test System: Ames Salmonella typhimurium, Strain/Indicator: TA98, Metabolic Activation: None, Method: Preincubation); “inactive; negative” (Test System: Ames Salmonella typhimurium, Strain/Indicator: TA98, Metabolic Activation: Rat, Liver, S9, Sodium phenobarbital and 5,6-benzoflavone (10%), Method: Preincubation). For the same molecule, the mutagenic call reads like this: (Test System: Ames Salmonella typhimurium, Strain/Indicator: TA100, Metabolic Activation: None, Method: Preincubation) “inactive; negative”; (Test System: Ames Salmonella typhimurium, Strain/Indicator: TA100, Metabolic Activation: Rat, Liver, S9, Sodium phenobarbital and 5,6-benzoflavone (10%), Method: Preincubation) “inactive; negative”; (Test System: Ames Salmonella typhimurium, Strain/Indicator: TA1535, Metabolic Activation: None, Method: Preincubation) “inactive; negative”; (Test System: Ames Salmonella typhimurium, Strain/Indicator: TA1535, Metabolic Activation: Rat, Liver, S9, Sodium phenobarbital and 5,6-benzoflavone (10%), Method: Preincubation) “inactive; negative”; (Test System: Ames Salmonella typhimurium, Strain/Indicator: TA1537, Metabolic Activation: None, Method: Preincubation) “inactive; negative”; (Test System: Ames Salmonella typhimurium, Strain/Indicator: TA1537, Metabolic Activation: Rat, Liver, S9, Sodium phenobarbital and 5,6-benzoflavone (10%), Method: Preincubation) “inactive; negative”. In addition, the mutagenic call reads like this: (Test System: Ames Salmonella typhimurium, Strain/Indicator: TA2637, Metabolic Activation: None, Method: Preincubation) “active; positive”; (Test System: Ames Salmonella typhimurium, Strain/Indicator: TA2637, Metabolic Activation: Rat, Liver, S9, Sodium phenobarbital and 5,6-benzoflavone (10%), Method: Preincubation) “inactive; negative”; (Test System: E. coli, Strain/Indicator: WP2uvrA/pKM101, Metabolic Activation: None, Method: Preincubation) “inactive; negative”; (Test System: E. coli, Strain/Indicator: WP2uvrA/pKM101, Metabolic Activation: Rat, Liver, S9, Sodium phenobarbital and 5,6-benzoflavone (10%), Method: Preincubation) “inactive; negative”.
For `O=[N+]([O-])c1cccc(S(=O)(=O)O)c1`, the mutagenic call is, setting by setting: (Test System: AMES SALMONELLA TYPHIMURIUM, Strain/Indicator: TA98, Metabolic Activation: NONE, Method: PREINCUBATION) “inactive; negative”; (Test System: AMES SALMONELLA TYPHIMURIUM, Strain/Indicator: TA98, Metabolic Activation: RAT, LIVER, S-9, KANECHLOR 500, Method: PREINCUBATION) “inactive; negative”; (Test System: AMES SALMONELLA TYPHIMURIUM, Strain/Indicator: TA100, Metabolic Activation: NONE, Method: PREINCUBATION) “inactive; negative”; (Test System: AMES SALMONELLA TYPHIMURIUM, Strain/Indicator: TA100, Metabolic Activation: RAT, LIVER, S-9, KANECHLOR 500, Method: PREINCUBATION) “inactive; negative”.

For the origin of these results see PubChem BioAssay AID1259407 (Chemical Carcinogenesis Research Information System (CCRIS), 2018).
